# Experimental data published in patent US12714698B2, “Compositions and methods for treating or preventing dermal disorders” (Drexel University, priority 2015, dated 2026).
# Tests used:
# [1] = tested on: human cardiac fibroblasts; experiment: Immunoblot of senescence markers (p53, p21, p16, lamin B1, IL-6); assay type: cell-based
# Protocol: (§1) Cell culture experiments utilizing NRTIs were of the following design. Cultures of either human lung or cardiac fibroblasts were cultivated according to standard culture protocols for these cells (Cristofalo, et al., Journal of Tissue Culture Methods 1980, 6:117-121). Parallel sets of cultures were maintained in normal growth media or in normal growth media with the addition of 1 nM rapamycin. Cultures were maintained with 1 nM rapamycin (Enzo Biologicals) for two weeks before exposure to NRTIs. Cell cultures were exposed to NRTIs at indicated concentrations in individual experiments (generally 10-20 μg/ml) for 7 days, with a change of media and fresh NRTIs at day 4. Mitochondrial measurements, bioanalyzer measurements, immunoblotting for protein expression and phosphorylation status, and assays for senescence were performed at the end of this 7-day period.
# Cell culture reagents were from Cellgro, unless indicated. WI-38 fetal-lung primary human fibroblasts or human cardiac fibroblasts were grown in MEM supplemented with 10% fetal bovine serum, 1% L-glutamine, MEM vitamins, and MEM non-essential amino acids. Cells were maintained in a 37° C. in 5% CO2 incubator. For treatment studies, cells were treated with 1 nM rapamycin (Enzo Biologicals) for two weeks before treatment with NRTIs. Cells were maintained by trypsinization and reseeding at a cell density of 1×10^4/cm^2 every 7 to 10 days. Emtricitabine (FTC) and tenofovir disoproxil fumarate (TDF) were kindly provided by the NIH AIDS Research & Reference Reagent program. During the 7-day exposure to the NRTIs, the pharmacologic inhibitors PD98059 (10 μM, Santa Cruz Biotechnologies), BI-D1870, GW5074, and SB203580 (10 μM, Enzo Biologicals) were added to the culture medium either during the final 48 hours or for the final 2 hours depending upon the experiment. During the 7-day exposure to NRTIs, Trolox (500 μM) and N-acetylcysteine (100 μM, Acros Organics) were added every other day. Mito-Q (20 nM) and TPP (20 nM) were kindly provided by Dr. Brett Kaufmann at the University of Pennsylvania School of Veterinary Medicine. Vector and mt-catalase adenoviruses (MOI's 25, 50, and 75) were purchased from Gene Transfer Vector Core from the University of Iowa.
# Cell protein extracts were prepared by extracting with radioimmunoprecipitation assay (RIPA) buffer containing a protease inhibitor cocktail (Sigma-Aldrich) and phosphatase inhibitors, NaF and sodium orthovanadate. Protein concentration was quantified using a bicinchoninic acid (BCA) assay (Pierce Biotechnology). […] For co-immunoprecipitation, cell protein extracts were prepared in HNTG buffer containing a protease inhibitor cocktail and quantified using BCA assay. […]
# [2] = tested on: human cardiac fibroblasts; experiment: Immunoblot of electron transport chain and mitochondrial clearance proteins; assay type: cell-based
# Protocol: as §1
# Cell protein extracts were prepared by extracting with radioimmunoprecipitation assay (RIPA) buffer containing a protease inhibitor cocktail (Sigma-Aldrich) and phosphatase inhibitors, NaF and sodium orthovanadate. Protein concentration was quantified using a bicinchoninic acid (BCA) assay (Pierce Biotechnology). Western blot analysis was performed using 15 to 30 μg of protein extracts that were run on SDS-PAGE and transferred onto nitrocellulose (Biorad) membranes. Blots were incubated with antibodies specific for: beta-actin (Sigma-Aldrich), TFAm, parkin, p16, phospho(S82)HSP27, HSP27 (Santa Cruz Biotechnologies), p53, 21, catalase, MDM2 (EMD Millipore), VDAC, phospho(S235/236)-ribosomal protein S6, ribosomal protein S6, phospho(S166)-MDM2, phospho(5473)-AKT, AKT, beta-tubulin (Cell Signaling), p62 (Enzo Biologicals), IL-6 (NeoBiolab), lamin B1, PINK1, and Mitoprofile Total OXPHOS Cocktail (complex I-NDUFB8 subunit, CII-SDHB subunit, CIIIUQCRC2 subunit, and CIV-mitochondrial COX1 subunit) (Abcam) according to manufacturers' instructions. […] For co-immunoprecipitation, cell protein extracts were prepared in HNTG buffer containing a protease inhibitor cocktail and quantified using BCA assay. […]
# human lung fibroblasts = experiment: Mitochondrial respiration, Seahorse Bioanalyzer, lung fibroblasts; assay type: cell-based; settings: rapamycin-treated lung fibroblasts
# Protocol: Cell culture reagents were from Cellgro, unless indicated. […]
# Mitochondrial function was measured using the XF cell mito stress test kit on a Seahorse XF24 Bioanalyzer (Seahorse Bioscience). […] Following acquisition, results were normalized based upon 10^6 cells counted using a Guava EasyCyte Mini (Millipore), where applicable. […] Mitochondrial respiration was calculated based upon oxygen consumption rate measurements in triplicates from cells seeded in at least quadruplicates. […]
# Lung fibroblasts = experiment: Senescence markers in lung fibroblasts exposed to NRTIs; assay type: cell-based, human
# Protocol: as §1
# Cell culture reagents were from Cellgro, unless indicated. WI-38 fetal-lung primary human fibroblasts or human cardiac fibroblasts were grown in MEM supplemented with 10% fetal bovine serum, 1% L-glutamine, MEM vitamins, and MEM non-essential amino acids. Cells were maintained in a 37° C. in 5% CO2 incubator. For treatment studies, cells were treated with 1 nM rapamycin (Enzo Biologicals) for two weeks before treatment with NRTIs. […]
# human fibroblasts = experiment: Ethidium bromide mitochondrial stress in human fibroblasts
# Description: Human fibroblasts were exposed to ethidium bromide for 7 days and cell viability measured at that time.
smiles,measurement,setting,value
CO[C@H]1C[C@@H]2CC[C@@H](C)[C@@](O)(O2)C(=O)C(=O)N2CCCC[C@H]2C(=O)O[C@H]([C@H](C)C[C@@H]2CC[C@@H](O)[C@H](OC)C2)CC(=O)[C@H](C)/C=C(\C)[C@@H](O)[C@@H](OC)C(=O)[C@H](C)C[C@H](C)/C=C/C=C/C=C/1C [rapamycin],NRTI-induced decrease of lamin B1,[1]; rapamycin (1 nM),prevented this decrease
same,levels of IL-6 following exposure to NRTIs,[1]; rapamycin treated cells (1 nM),no increase
same,"levels of p53, p21 and p16 on NRTI exposure",[1]; rapamycin treated cells (1 nM),did not increase
same,"steady state levels of NDUFB8, SDHB, UQCRC2 and mt-CO1",[2]; cells treated with rapamycin vs control,lower
same,ETC protein levels on exposure to NRTIs,[2]; rapamycin-treated cells,not elevated
same,level of p62/SQSTM1,[2]; response to rapamycin,decreased
same,"basal and maximal respiration, proton leak following exposure to NRTIs",human lung fibroblasts,no increase
same,effect of rapamycin treatment on NRTI-induced senescence markers,Lung fibroblasts,protection
same,survival of human fibroblasts following mitochondrial stress,human fibroblasts; ethidium bromide for 7 days,increases the survival
same,mitochondrial network following exposure to EthBr,human fibroblasts; rapamycin treated cells,able to maintain their mitochondrial network
same,mitochondrial network,"human fibroblasts; rapamycin treated cells, no toxin",normal mitochondrial network
